Target: T1, hMCHR (MCH receptor) (Homo sapiens, UniProt Q99705)
T1 construct: (or internally produced); host or cells: CHO (Chinese hamster ovary) cells, membrane preparation
Assay: MCH Assay PCOP Protocol ([125I]-MCH SPA binding to hMCHR-CHO membranes);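 on Activity (Ki range): A 0.4–50 nM B 51–500 nM C 501–2500 nM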
Conditions: [125I]-MCH 0.5 nM, hMCHR-CHO membranes; read-out: Activity (ranges of Ki values)
Experimental: A reaction mixture of 10 μg hMCHR-CHO overexpressing membranes (from Receptor Biology, Inc., Beltsville, Md., or internally produced) and 100 μg/well WGA-SPA beads (from Amersham Pharmacia Biotech, Inc., Piscataway, N.J.)/100 μl was prepared in MCHR assay buffer (25 mM HEPES, pH 7.4, 10 mM NaCl, 10 mM MgCl2, 5 mM MnCl2, 0.1% BSA). […] The assay plates were shaken for 5 minutes on a plate shaker, then incubated for 2 hours before cpm/well were determined in a Microbeta Trilux counter (from PerkinElmer Wallac, Inc., Gaithersburg, Md.).

T1 sequence (Q99705 whole entry): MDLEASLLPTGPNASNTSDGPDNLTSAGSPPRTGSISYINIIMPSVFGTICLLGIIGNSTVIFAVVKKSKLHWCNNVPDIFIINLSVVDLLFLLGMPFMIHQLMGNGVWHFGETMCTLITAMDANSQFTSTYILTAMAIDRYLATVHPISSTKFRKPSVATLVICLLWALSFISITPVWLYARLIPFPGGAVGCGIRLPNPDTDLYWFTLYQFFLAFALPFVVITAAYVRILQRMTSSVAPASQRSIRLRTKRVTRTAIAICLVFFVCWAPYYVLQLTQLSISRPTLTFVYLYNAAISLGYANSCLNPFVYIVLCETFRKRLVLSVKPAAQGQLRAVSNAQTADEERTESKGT

Compound	Ki [nM]
CN(C)CCC(CNC(=O)Nc1cccnc1)c1ccc(-c2cccc(C#N)c2)cc1 (centres unmarked) [Example 71]	51 to 500
CN(C)CCCNCCC(CNC(=O)Nc1cc(Cl)cc(Cl)c1)c1ccc(-c2c(F)cccc2F)cc1 (centres unmarked) [Example 102]	501 to 2500
CS(=O)(=O)NC1CCN(CCC(CNC(=O)Nc2cc(Cl)cc(Cl)c2)c2ccc(Cl)cc2)C1 (centres unmarked) [Example 204]	501 to 2500
CCOC(=O)N1CCC(NCCC(CNC(=O)Nc2cccc(C(F)(F)F)c2)c2ccc(C)cc2)CC1 (centres unmarked) [Example 137]	51 to 500
Cc1ccc(C(CCNC2CCCC2)CNC(=O)Nc2cccc(Cl)c2)cc1 (centres unmarked) [Example 142]	501 to 2500
COCC(=O)NC1CCN(CCC(CNC(=O)Nc2cc(Cl)cc(Cl)c2)c2ccc(Cl)cc2)C1 (centres unmarked) [Example 194]	51 to 500
N#Cc1cccc(-c2ccc(C(CCNC3CC3)CNC(=O)Nc3ccc(F)cc3)cc2)c1 (centres unmarked) [Example 59]	0.4 to 50
Cc1ccc(C(CCNC2CCCC2)CNC(=O)Nc2cccc(Br)c2)cc1 (centres unmarked) [Example 143]	501 to 2500
O=C(NCC(CCN1CCC(NC(=O)C2CCC2)CC1)c1ccc(Cl)c(Cl)c1)Nc1cc(Cl)cc(Cl)c1 (centres unmarked) [Example 191]	51 to 500
CC(=O)NC1CCN(CCC(CNC(=O)Nc2cc(Cl)cc(Cl)c2)c2ccc(C)cc2)CC1 (centres unmarked) [Example 206]	501 to 2500
Cc1ccc(C(CCN2CCC(NS(C)(=O)=O)C2)CNC(=O)Nc2cc(Cl)cc(Cl)c2)cc1 (centres unmarked) [Example 207]	501 to 2500
O=C(NCC(CCNC1CCCC1)c1ccc(-c2cc(F)cc(F)c2)cc1)Nc1cc(Cl)cc(Cl)c1 (centres unmarked) [Example 95]	0.4 to 50
CC(CCNC1CCCC1)(CNC(=O)Nc1ccc(F)c(F)c1)c1ccc(Cl)c(Cl)c1 (centres unmarked) [Example 114]	501 to 2500
O=C(NCC(CCNC1CCCC1)c1ccc(Cl)cc1)Nc1cccc(Cl)c1 (centres unmarked) [Example 139]	501 to 2500
CN(C)CCC(CNC(=O)c1cc(F)cc(F)c1)c1ccc(-c2cccc(C#N)c2)cc1 (centres unmarked) [Example 66]	0.4 to 50
CC(CCNC1CCCC1)(CNC(=O)Nc1cc(Cl)cc(Cl)c1)c1ccc(Cl)c(Cl)c1 (centres unmarked) [Example 107]	51 to 500
CN(C)CCC(CNC(=O)Nc1cc(Cl)cc(Cl)c1)c1ccc(-c2cccc(C(N)=O)c2)cc1 (centres unmarked) [Example 38]	0.4 to 50

Compound	Ki [nM]
CN(C)CCC(CNC(=O)Nc1cc(Cl)cc(Cl)c1)c1ccc(-c2ccncc2)cc1 (centres unmarked) [Example 39]	51 to 500
CC(CCNC1CCCC1)(CNC(=O)Nc1ccc(F)c([N+](=O)[O-])c1)c1ccc(Cl)c(Cl)c1 (centres unmarked) [Example 113]	501 to 2500
CC(=O)Nc1cccc(-c2cccc(C(CCNCCCN(C)C)CNC(=O)Nc3cc(Cl)cc(Cl)c3)c2)c1 (centres unmarked) [Example 168]	501 to 2500
O=C(NCC(CCNC1CCCC1)c1ccc(Cl)c(Cl)c1)Nc1cccc(Cl)c1 (centres unmarked) [Example 130]	51 to 500
O=C(NCC(CCN1CCC(NC(=O)c2cccs2)CC1)c1ccc(Cl)c(Cl)c1)Nc1cc(Cl)cc(Cl)c1 (centres unmarked) [Example 212]	501 to 2500
N#Cc1cccc(-c2ccc([C@H](CCN3CC[C@@H](NC(=O)c4cc(Cl)cc(Cl)c4)C3)CNC(=O)Nc3cc(Cl)cc(Cl)c3)cc2)c1 [Example 28, (R,S)-3,5-Dichloro-N-(1-{3-(3′-cyano-biphenyl-4-yl)-4-[3-(3,5-dichloro-phenyl)-ureido]-butyl}-pyrrolidin-3-yl)-benzamide]	501 to 2500
O=C(NCC(CCNC1CCCC1)c1cccc(-c2cccc(Cl)c2)c1)Nc1cc(Cl)cc(Cl)c1 (centres unmarked) [Example 158]	51 to 500
CN(C)CCCNCCC(CNC(=O)Nc1cc(Cl)cc(Cl)c1)c1cccc(-c2ccc3c(c2)OCO3)c1 (centres unmarked) [Example 163]	501 to 2500
Cc1ccc(C(CCNC2CCNC2)CNC(=O)Nc2ccc(Cl)c(Cl)c2)cc1 (centres unmarked) [Example 145]	501 to 2500
N#Cc1cccc(-c2ccc(C(CCNC3CCCC3)CNC(=O)c3cccc(Cl)c3)cc2)c1 (centres unmarked) [Example 85]	51 to 500
CN(C)CCC(OC(=O)Nc1cc(Cl)cc(Cl)c1)c1ccc(-c2cccnc2)cc1 (centres unmarked) [Example 42]	501 to 2500
CN(C)CCCNCCC(CNC(=O)Nc1cc(Cl)cc(Cl)c1)c1cccc(-c2cc(C(F)(F)F)cc(C(F)(F)F)c2)c1 (centres unmarked) [Example 175]	501 to 2500
COCCNCCC(CNC(=O)Nc1cc(Cl)cc(Cl)c1)c1ccc(-c2cccc(C#N)c2)cc1 (centres unmarked) [Example 72]	0.4 to 50
N#Cc1cccc(-c2ccc(C(CCNC3CCCC3)CNC(=O)Nc3ccc(F)c(Cl)c3)cc2)c1 (centres unmarked) [Example 75]	0.4 to 50
CN(C)CCCNCCC(CNC(=O)Nc1cc(Cl)cc(Cl)c1)c1cccc(-c2cccc(F)c2)c1 (centres unmarked) [Example 173]	501 to 2500
COc1ccccc1-c1cccc(C(CCNC2CCCC2)CNC(=O)Nc2cc(Cl)cc(Cl)c2)c1 (centres unmarked) [Example 164]	501 to 2500

Same assay, conditions: [125I]-MCH SPA binding, hMCHR-CHO membranes; Ki class ranges; read-out: Activity (range of Ki)

Compound	Ki [nM]
O=C(NCC(CCN1CCCCC1)c1ccc(Cl)c(Cl)c1)Nc1cc(C(F)(F)F)cc(C(F)(F)F)c1 (centres unmarked) [Example 444]	51 to 500
CCN(CC)CCC(CNC(=O)Nc1cc(C(F)(F)F)cc(C(F)(F)F)c1)c1ccc(Cl)c(Cl)c1 (centres unmarked) [Example 433]	501 to 2500
O=C(NCC(CCN1CCC(O)C1)c1ccc(Cl)c(Cl)c1)Nc1cc(C(F)(F)F)cc(C(F)(F)F)c1 (centres unmarked) [Example 427]	501 to 2500
CCN1CCCC1CNCCC(CNC(=O)Nc1cc(C(F)(F)F)cc(C(F)(F)F)c1)c1ccc(Cl)c(Cl)c1 (centres unmarked) [Example 423]	51 to 500
CCN(CCC(CNC(=O)Nc1cc(C(F)(F)F)cc(C(F)(F)F)c1)c1ccc(Cl)c(Cl)c1)Cc1ccncc1 (centres unmarked) [Example 435]	501 to 2500
CC1CCCN(CCC(CNC(=O)c2cc(C(F)(F)F)cc(C(F)(F)F)c2)c2ccc(Cl)c(Cl)c2)C1 (centres unmarked) [Example 417]	501 to 2500

Same assay, conditions: [125I]-MCH binding to hMCHR-CHO membranes; class symbols for ranges of Ki; read-out: Activity (Ki range)

Compound	Ki [nM]
O=C(NCC(CCNCCCn1ccnc1)c1ccc(Cl)c(Cl)c1)c1cc(C(F)(F)F)cc(C(F)(F)F)c1 (centres unmarked) [Example 414]	501 to 2500
CCCN(CC)CCC(CNC(=O)Nc1cccc(C(F)(F)F)c1)c1ccc(Cl)c(Cl)c1 (centres unmarked) [Example 288]	51 to 500
O=C(NCC(CCNC1CCC1)c1ccc(Cl)c(Cl)c1)Nc1cccc(C(F)(F)F)c1 (centres unmarked) [Example 283]	51 to 500
CCCN(CC)CCC(CNC(=O)c1cc(C(F)(F)F)cc(C(F)(F)F)c1)c1ccc(Cl)c(Cl)c1 (centres unmarked) [Example 395]	501 to 2500
O=C(NCC(CCNCCN1CCCC1)c1ccc(Cl)c(Cl)c1)c1cc(C(F)(F)F)cc(C(F)(F)F)c1 (centres unmarked) [Example 411]	501 to 2500
CN(C)CCCNCCC(CNC(=O)Nc1cc(C(F)(F)F)cc(C(F)(F)F)c1)c1cccc(F)c1 (centres unmarked) [Example 346]	501 to 2500
O=C(NCC(CCN1CCC(N2CCCCC2)CC1)c1ccc(F)c(F)c1)Nc1ccc(Cl)c(Cl)c1 (centres unmarked) [Example 369]	501 to 2500
Cn1cnc(CCNCCC(CNC(=O)Nc2ccc(Cl)c(Cl)c2)c2ccc(Cl)c(Cl)c2)c1 (centres unmarked) [Example 284]	51 to 500
Cc1ccc(C(CCNC2CCC2)CNC(=O)Nc2cc(C(F)(F)F)cc(C(F)(F)F)c2)cc1 (centres unmarked) [Example 274]	51 to 500
O=C(NCC(CCN1CCCCC1)c1ccc(Cl)c(Cl)c1)c1cc(C(F)(F)F)cc(C(F)(F)F)c1 (centres unmarked) [Example 403]	501 to 2500
Cn1cnc(CCNCCC(CNC(=O)Nc2cc(C(F)(F)F)cc(C(F)(F)F)c2)c2ccc(Cl)c(Cl)c2)c1 (centres unmarked) [Example 367]	501 to 2500
CC1CCN(CCC(CNC(=O)c2cc(C(F)(F)F)cc(C(F)(F)F)c2)c2ccc(Cl)c(Cl)c2)CC1 (centres unmarked) [Example 405]	501 to 2500
COc1ccccc1-c1ccc(C(CCNCCCN(C)C)CNC(=O)Nc2cc(Cl)cc(Cl)c2)cc1 (centres unmarked) [Example 252]	51 to 500
O=C(NCC(CCNCCc1ccc(O)cc1)c1ccc(Cl)c(Cl)c1)c1cc(C(F)(F)F)cc(C(F)(F)F)c1 (centres unmarked) [Example 392]	51 to 500
CCNC(=O)NC1CCN(CCC(CNC(=O)Nc2cc(Cl)cc(Cl)c2)c2ccc(Cl)c(Cl)c2)C1 (centres unmarked) [Example 316]	501 to 2500
O=C(NCC(CCNC1CCCC1)c1ccc(-c2cccc(C(=O)O)c2)cc1)Nc1cc(Cl)cc(Cl)c1 (centres unmarked) [Example 248]	51 to 500
O=C(NCC(CCNCc1ccc2c(c1)OCO2)c1ccc(Cl)c(Cl)c1)Nc1ccc(Cl)c(Cl)c1 (centres unmarked) [Example 296]	501 to 2500
O=C(NCc1cc(C(F)(F)F)cc(C(F)(F)F)c1)C(CCNC1CCC1)c1ccc(Cl)c(Cl)c1 (centres unmarked) [Example 379]	501 to 2500
CN(C)CCCNCCC(CNC(=O)Nc1cccc(C(F)(F)F)c1)c1ccc(Cl)c(Cl)c1 (centres unmarked) [Example 310]	501 to 2500
O=C(NCC(CCN1CCCC1)c1cccc(Cl)c1)Nc1cc(C(F)(F)F)cc(C(F)(F)F)c1 (centres unmarked) [Example 334]	501 to 2500
Cn1cnc(CCNCCC(CNC(=O)Nc2cccc(C(F)(F)F)c2)c2ccc(Cl)c(Cl)c2)c1 (centres unmarked) [Example 303]	501 to 2500
CC(C)OCCCNCCC(CNC(=O)c1cc(C(F)(F)F)cc(C(F)(F)F)c1)c1ccc(Cl)c(Cl)c1 (centres unmarked) [Example 409]	501 to 2500
O=C(NCC(CCN1CCC(N2CCCCC2)CC1)c1ccc(Cl)c(Cl)c1)Nc1cc(C(F)(F)F)ccc1F (centres unmarked) [Example 373]	501 to 2500
O=C(NCC(CCN1CCC(N2CCCCC2)CC1)c1ccc(Cl)c(Cl)c1)Nc1cccc(Cl)c1Cl (centres unmarked) [Example 358]	501 to 2500
Cc1ccc(C(CCNC2CCCC2)CNC(=O)Nc2cc(C(F)(F)F)cc(C(F)(F)F)c2)cc1 (centres unmarked) [Example 269]	51 to 500
CN(C)CCNCCC(CNC(=O)Nc1cc(C(F)(F)F)cc(C(F)(F)F)c1)c1ccc(Cl)c(Cl)c1 (centres unmarked) [Example 332]	51 to 500
O=C(NCC(CCNCCc1c[nH]c2ccccc12)c1ccc(Cl)c(Cl)c1)Nc1cc(Cl)cc(Cl)c1 (centres unmarked) [Example 294]	501 to 2500
COc1ccc2c(CCNCCC(CNC(=O)c3cc(C(F)(F)F)cc(C(F)(F)F)c3)c3ccc(Cl)c(Cl)c3)c[nH]c2c1 (centres unmarked) [Example 394]	501 to 2500
Cc1ccc(C(CCNC2CCCCC2)CNC(=O)Nc2cc(Cl)cc(Cl)c2)cc1 (centres unmarked) [Example 268]	51 to 500
